Test results as given in patent US7691836B2, “Progesterone receptor modulators” (N.V. Organon, priority 2004, dated 2010).

Experiments:
progesterone receptor-B [1] = biological target: T1, progesterone receptor-B (Homo sapiens, UniProt P06401); assay: Progesterone receptor-B transactivation, agonistic mode (CHO cells, luciferase); type: cell-based; settings: for EC50: CHO cells, agonistic mode, read-out: PRBagoEC50; for Emax: CHO, intrinsic agonistic activity, relative to reference (16α)-16-ethyl-21-hydroxy-19-norpregn-4-ene-3,20-dione, read-out: PRBago Eff (%)
T1 sequence (P06401 1-933): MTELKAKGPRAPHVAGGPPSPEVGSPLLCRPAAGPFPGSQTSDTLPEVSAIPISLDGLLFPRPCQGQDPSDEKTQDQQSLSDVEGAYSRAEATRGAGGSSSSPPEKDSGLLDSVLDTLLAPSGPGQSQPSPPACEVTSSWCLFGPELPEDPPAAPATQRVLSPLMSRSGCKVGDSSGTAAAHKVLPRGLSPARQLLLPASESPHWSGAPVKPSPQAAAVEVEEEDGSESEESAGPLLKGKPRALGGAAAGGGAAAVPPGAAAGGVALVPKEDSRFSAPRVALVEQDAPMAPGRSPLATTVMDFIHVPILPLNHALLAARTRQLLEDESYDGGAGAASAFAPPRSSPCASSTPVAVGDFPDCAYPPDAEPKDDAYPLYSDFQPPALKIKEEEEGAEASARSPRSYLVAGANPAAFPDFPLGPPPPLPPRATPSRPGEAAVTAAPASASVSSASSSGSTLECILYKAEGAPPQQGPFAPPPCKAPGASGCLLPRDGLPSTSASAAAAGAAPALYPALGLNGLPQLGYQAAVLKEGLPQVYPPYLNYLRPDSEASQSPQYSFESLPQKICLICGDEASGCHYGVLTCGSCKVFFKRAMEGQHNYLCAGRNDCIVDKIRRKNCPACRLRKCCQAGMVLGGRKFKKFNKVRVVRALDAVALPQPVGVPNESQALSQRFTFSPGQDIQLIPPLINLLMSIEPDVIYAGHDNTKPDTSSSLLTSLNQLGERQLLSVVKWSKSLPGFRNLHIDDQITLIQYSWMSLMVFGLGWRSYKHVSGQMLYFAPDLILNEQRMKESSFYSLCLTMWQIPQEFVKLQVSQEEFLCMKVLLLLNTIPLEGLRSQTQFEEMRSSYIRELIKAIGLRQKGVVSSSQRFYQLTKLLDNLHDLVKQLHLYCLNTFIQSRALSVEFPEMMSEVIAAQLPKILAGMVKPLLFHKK
Description: For selecting compounds of the subject invention with a mixed modulating effect on the progesterone receptor, testing in the agonistic mode must result in an intrinsic activity of between about 15% and about 85% of the maximal activity when (16α)-16-ethyl-21-hydroxy-19-norpregn-4-ene-3,20-dione is used as a reference. Moreover, this maximal agonistic activity should be reached at a concentration of 10^−6 or less, and preferably at a concentration of 10^−8 or less.
(§1) The progestagenic activity of a compound of the invention (EC50 and intrinsic agonistic activity) was determined in an in vitro bioassay of Chinese hamster ovary (CHO) cells as described by W. G. E. J. Schoonen et al. (Anal. Biochem. 261 (1998), 222-224). […] The efficacy of the antagonistic effect was expressed as the percentage of the effect produced by a standard antagonist, (6β,11β,17β)-11-[4-(dimethylamino)phenyl]-4′,5′-dihydro-6-methylspiro[estra-4,9-diene-17,2′(3′H)-furan]-3-one.
(§2) It will be recognized by those skilled in the art that, in the setting described above, the EC50 determined is more or less absolute and depends on the intrinsic property of the tested compound itself, however, the IC50 depends on the amount and agonistic EC50 of the inducer as well as on the intrinsic property of the tested compound itself. Thus, with the same amount of inducer, a relatively strong antagonist will be able to produce a measurable IC50 whereas a relatively weak antagonist may fail to produce a detectable result.

progesterone receptor-B [2] = biological target: T1, progesterone receptor-B; assay: Progesterone receptor-B transactivation, antagonistic mode (inhibition of luciferase transactivation by inducer, CHO cells); type: cell-based; settings: for Emax: CHO, intrinsic antagonistic activity, percentage of effect of standard antagonist (6β,11β,17β)-11-[4-(dimethylamino)phenyl]-4′,5′-dihydro-6-methylspiro[estra-4,9-diene-17,2′(3′H)-furan]-3-one, 0.1 nM inducer, read-out: PRBant Eff (%); for EC50: in the presence of 0.1 nM inducer (16α)-16-ethyl-21-hydroxy-19-norpregn-4-ene-3,20-dione, read-out: PRBant EC50
Experimental: In the antagonistic mode, testing must result in an intrinsic activity of between about 85% and about 15% of the maximal activity when (6β,11β,17β)-11-[4-(dimethylamino)phenyl]-4′,5′-dihydro-6-methylspiro[estra-4,9-diene-17,2′(3′H)-furan]-3-one is used as a reference.
as §1, §2

| SMILES | EC50 (progesterone receptor-B [1]) [nM] | Emax (progesterone receptor-B [1]) [%] | Emax (progesterone receptor-B [2]) [%] | EC50 (progesterone receptor-B [2]) [nM] |
| --- | --- | --- | --- | --- |
| C=C[C@@H]1C[C@H]2[C@@H]3CCC4=CC(=O)CCC4=C3[C@@H](c3ccc(-c4ccc(OC)nc4)cc3)C[C@]2(C)[C@H]1C(=O)C1CC1 [Example 15, (11β,16α,17β)-17-(cyclopropylcarbonyl)-16-ethenyl-11-[4-(6-methoxypyridin-3-yl)phenyl]estra-4,9-dien-3-one] | 0.74 | 41.4 | 44.5 | 0.98 |
| CC[C@@H]1C[C@H]2[C@@H]3CCC4=CC(=O)CCC4=C3[C@@H](c3ccc(-c4cccnc4)cc3)C[C@]2(C)[C@H]1C(=O)C1CC1 [Example 16, (11β,16α,17β)-17-cyclopropylcarbonyl-16-ethyl-11-[4-(3-pyridinyl)-phenyl]-estra-4,9-dien-3-one] | 0.23 | 34 | 53 | 0.596 |
| COc1cncc(-c2ccc([C@H]3C[C@@]4(C)[C@@H](C[C@@H](C)[C@@H]4C(=O)C4CC4)[C@@H]4CCC5=CC(=O)CCC5=C43)cc2)c1 [Example 6, (11β,16α,17β)-17-cyclopropylcarbonyl-16-methyl-11-[4-(5-methoxy-pyridin-3-yl)phenyl]estra-4,9-dien-3-one] | 1.3 | 54 | 34 | 28 |
| COc1ccc(-c2ccc([C@H]3C[C@@]4(C)[C@@H](CC[C@@]45CCCC5=O)[C@@H]4CCC5=CC(=O)CCC5=C43)cc2)cn1 [Example 24, (11β)-11-[4-(6-methoxypyridin-3-yl)phenyl]-17,24-cyclo-19,21-dinorchola 4,9-diene-3,20-dione] | 0.15 | 20 | 62 | 0.546 |
| C[C@]12C[C@H](c3ccc(-c4cccnc4)cc3)C3=C4CCC(=O)C=C4CC[C@H]3[C@@H]1CC[C@@H]2C(=O)C1CC1 [Example 18, (11β,17β)-17-cyclopropylcarbonyl-11-[4-(3-pyridinyl)phenyl]estra-4,9-dien-3-one] | 0.82 | 36 | 66 | 0.751 |
| C[C@@H]1C[C@H]2[C@@H]3CCC4=CC(=O)CCC4=C3[C@@H](c3ccc(-c4ccc(F)nc4)cc3)C[C@]2(C)[C@H]1C(=O)C1CC1 [Example 5, (11β,16α,17β)-17-cyclopropylcarbonyl-11-[4-(6-fluoropyridin-3-yl)phenyl]-16-methylestra-4,9-dien-3-one] | 0.49 | 50.5 | 50 | 8.48 |
| C[C@@H]1C[C@H]2[C@@H]3CCC4=CC(=O)CCC4=C3[C@@H](c3ccc(-c4ncccn4)cc3)C[C@]2(C)[C@H]1C(=O)C1CC1 [Example 27, (11β,16α,17β)-17-cyclopropylcarbonyl-16-methyl-11-[4-(pyrimidin-2-yl)phenyl]estra-4,9-dien-3-one] | 2.54 | 52 | > 27 | 3.25 |
| COc1ccc(-c2ccc([C@H]3C[C@@]4(C)[C@@H](C[C@@H](C)[C@@H]4C(=O)C4CC4)[C@@H]4CCC5=CC(=O)CCC5=C43)cc2)cn1 [Example 3, (11β,16α,17β)-17-cyclopropylcarbonyl-11-[4-(6-methoxypyridin-3-yl)phenyl]-16-methylestra 4,9-dien-3-one] | 0.12 | 41.5 | 59 | 0.628 |
| Cc1ccc(-c2ccc([C@H]3C[C@@]4(C)[C@@H](C[C@@H](C)[C@@H]4C(=O)C4CC4)[C@@H]4CCC5=CC(=O)CCC5=C43)cc2)nc1 [Example 11] | 1.7 | 56 | 35 | 0.8 |
| CC[C@@H]1C[C@H]2[C@@H]3CCC4=CC(=O)CCC4=C3[C@@H](c3ccc(-c4ccc(OC)nc4)cc3)C[C@]2(C)[C@H]1C(=O)C1CC1 [Example 17, (11β,16α,17β)-17-cyclopropylcarbonyl-16-ethyl-11-[4-(6-methoxy-pyridin-3-yl)phenyl]-estra-4,9-dien-3-one] | 1.3 | 42 | 51.7 | 7.89 |
| C[C@@H]1C[C@H]2[C@@H]3CCC4=CC(=O)CCC4=C3[C@@H](c3ccc(-c4ccncc4)cc3)C[C@]2(C)[C@H]1C(=O)C1CC1 [Example 12, (11β,16α,17β)-17-cyclopropylcarbonyl-16-methyl-11-[4-(4-pyridinyl)phenyl]estra-4,9-dien-3-one] | 4 | 56 | 26.5 | 2.5 |
